BindingDB's records for doi:10.1021/cb500956g (University of North Carolina At Chapel Hill, 2015)

What was measured:
Test in all cases: AlphaScreen Assay
Conditions in all cases: pH 8
[1] = target: T1, E3 ubiquitin-protein ligase UHRF1 (Homo sapiens, UniProt Q96T88)
T1 sequence (Q96T88 whole entry): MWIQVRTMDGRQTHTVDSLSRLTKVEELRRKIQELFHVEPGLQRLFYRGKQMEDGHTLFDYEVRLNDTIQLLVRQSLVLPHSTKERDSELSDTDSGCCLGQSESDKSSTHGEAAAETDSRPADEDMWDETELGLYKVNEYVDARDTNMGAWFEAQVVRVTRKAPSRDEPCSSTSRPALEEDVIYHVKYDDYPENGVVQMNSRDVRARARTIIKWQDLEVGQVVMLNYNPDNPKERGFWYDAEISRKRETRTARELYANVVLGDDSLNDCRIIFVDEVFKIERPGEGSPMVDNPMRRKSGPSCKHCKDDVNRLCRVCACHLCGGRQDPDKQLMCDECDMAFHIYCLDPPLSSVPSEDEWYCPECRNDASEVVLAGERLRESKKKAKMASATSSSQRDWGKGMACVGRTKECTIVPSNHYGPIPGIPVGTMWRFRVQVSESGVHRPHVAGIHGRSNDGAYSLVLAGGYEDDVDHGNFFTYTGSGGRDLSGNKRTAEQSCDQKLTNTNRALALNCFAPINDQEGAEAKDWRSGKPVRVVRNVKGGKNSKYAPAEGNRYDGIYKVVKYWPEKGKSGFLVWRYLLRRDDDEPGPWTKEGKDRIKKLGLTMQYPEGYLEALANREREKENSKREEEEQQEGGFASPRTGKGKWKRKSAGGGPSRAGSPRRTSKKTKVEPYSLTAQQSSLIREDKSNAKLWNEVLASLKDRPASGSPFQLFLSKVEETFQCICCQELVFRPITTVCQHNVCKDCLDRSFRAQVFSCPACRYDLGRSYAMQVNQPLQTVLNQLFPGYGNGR
Experimental: (§1) In brief, compound plates (1 μL at 10 mM highest concentration; 3-fold, 10-point dilutions in DMSO) were diluted in 1X assay buffer (20 mM TRIS pH 8.0, 25 mM NaCl, 2 mM DTT and 0.05% Tween-20) to 1 mM using a Multimek robotic pipettor (Nanoscreen), and 1 μL was spotted into the wells of 384-well low-volume Proxiplates (PerkinElmer). To these plates was added 9 μL of protein−peptide mix in a 1X assay buffer by Multidrop (Thermo) to bring the final compound concentration to 100 μM, and this was incubated for 30 min at RT. Next, 2 μL of a 1:1 mixture of streptavidin-conjugate donor and nickel-chelate acceptor beads (45μg/mL in 1X assay buffer) were added, and the plates were allowed to incubate for an additional 30 min in the dark at RT. After incubation, the plates were read on an EnVision multilabel reader equipped with an HTS AlphaScreen laser (PerkinElmer).

[2] = target: T2, PHD finger protein 1 (Homo sapiens, UniProt O43189)
T2 sequence (O43189 whole entry): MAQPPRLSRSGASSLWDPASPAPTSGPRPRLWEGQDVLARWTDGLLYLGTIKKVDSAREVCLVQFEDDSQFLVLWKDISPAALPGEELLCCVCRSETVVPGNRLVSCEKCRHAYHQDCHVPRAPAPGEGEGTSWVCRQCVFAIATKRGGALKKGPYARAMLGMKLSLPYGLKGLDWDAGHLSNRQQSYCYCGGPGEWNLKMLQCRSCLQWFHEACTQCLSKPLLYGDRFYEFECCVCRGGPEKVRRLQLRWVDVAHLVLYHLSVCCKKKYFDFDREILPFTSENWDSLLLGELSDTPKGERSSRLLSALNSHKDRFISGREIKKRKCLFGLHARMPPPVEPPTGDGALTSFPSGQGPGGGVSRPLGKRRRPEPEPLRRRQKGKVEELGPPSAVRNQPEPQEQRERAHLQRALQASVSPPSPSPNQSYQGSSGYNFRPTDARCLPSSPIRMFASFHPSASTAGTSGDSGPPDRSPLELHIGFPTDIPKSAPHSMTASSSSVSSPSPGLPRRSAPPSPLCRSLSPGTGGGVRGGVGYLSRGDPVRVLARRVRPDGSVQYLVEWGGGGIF
Experimental: as §1

[3] = target: T3, Lethal(3)malignant brain tumor-like protein 3 (Homo sapiens, UniProt Q96JM7)
T3 sequence (Q96JM7 whole entry): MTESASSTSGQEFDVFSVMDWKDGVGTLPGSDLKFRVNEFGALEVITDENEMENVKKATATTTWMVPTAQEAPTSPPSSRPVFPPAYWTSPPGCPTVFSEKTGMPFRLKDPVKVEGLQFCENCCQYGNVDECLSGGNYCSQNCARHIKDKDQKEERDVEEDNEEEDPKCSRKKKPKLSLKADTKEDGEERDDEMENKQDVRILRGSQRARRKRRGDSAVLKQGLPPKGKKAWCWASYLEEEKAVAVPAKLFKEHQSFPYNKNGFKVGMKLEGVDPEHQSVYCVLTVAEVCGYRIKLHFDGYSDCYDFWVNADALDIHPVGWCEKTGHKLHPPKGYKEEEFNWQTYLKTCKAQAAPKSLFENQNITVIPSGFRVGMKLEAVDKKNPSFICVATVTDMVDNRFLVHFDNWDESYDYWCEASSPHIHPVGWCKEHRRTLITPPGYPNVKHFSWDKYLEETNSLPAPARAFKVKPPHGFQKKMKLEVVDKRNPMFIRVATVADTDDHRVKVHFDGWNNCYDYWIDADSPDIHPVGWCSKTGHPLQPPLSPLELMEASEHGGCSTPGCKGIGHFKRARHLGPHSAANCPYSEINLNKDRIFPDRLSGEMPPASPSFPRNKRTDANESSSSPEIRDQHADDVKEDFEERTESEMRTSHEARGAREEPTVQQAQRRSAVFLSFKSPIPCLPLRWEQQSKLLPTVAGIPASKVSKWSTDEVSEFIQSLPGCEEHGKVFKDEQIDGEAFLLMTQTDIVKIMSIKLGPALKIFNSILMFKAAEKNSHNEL
Experimental: as §1

[4] = target: PHD finger protein 19 (Homo sapiens, UniProt Q5T6S3)
Experimental: as §1

[5] = target: MBT domain-containing protein 1 (Homo sapiens, UniProt Q05BQ5)
Sequence of MBT domain-containing protein 1 (Q05BQ5 whole entry, the tested form may be a part): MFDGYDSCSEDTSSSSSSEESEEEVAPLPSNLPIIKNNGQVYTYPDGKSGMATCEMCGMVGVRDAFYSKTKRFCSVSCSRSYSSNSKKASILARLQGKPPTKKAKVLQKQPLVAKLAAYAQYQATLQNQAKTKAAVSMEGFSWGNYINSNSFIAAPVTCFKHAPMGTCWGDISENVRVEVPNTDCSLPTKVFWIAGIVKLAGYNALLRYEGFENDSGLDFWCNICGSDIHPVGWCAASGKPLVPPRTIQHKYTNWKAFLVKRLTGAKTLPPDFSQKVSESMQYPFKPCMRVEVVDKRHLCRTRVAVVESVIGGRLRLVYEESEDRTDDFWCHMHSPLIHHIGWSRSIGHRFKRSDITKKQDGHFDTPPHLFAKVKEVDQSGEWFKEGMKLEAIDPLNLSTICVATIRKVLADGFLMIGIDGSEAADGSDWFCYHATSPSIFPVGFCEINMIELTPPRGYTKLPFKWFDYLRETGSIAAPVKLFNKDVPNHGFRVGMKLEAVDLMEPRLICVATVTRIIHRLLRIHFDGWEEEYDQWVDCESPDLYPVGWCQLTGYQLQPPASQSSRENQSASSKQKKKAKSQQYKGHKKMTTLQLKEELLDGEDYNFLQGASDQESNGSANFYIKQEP
Experimental: as §1

[6] = target: PHD finger protein 23 (Homo sapiens, UniProt Q9BUL5)
Sequence of PHD finger protein 23 (Q9BUL5 whole entry): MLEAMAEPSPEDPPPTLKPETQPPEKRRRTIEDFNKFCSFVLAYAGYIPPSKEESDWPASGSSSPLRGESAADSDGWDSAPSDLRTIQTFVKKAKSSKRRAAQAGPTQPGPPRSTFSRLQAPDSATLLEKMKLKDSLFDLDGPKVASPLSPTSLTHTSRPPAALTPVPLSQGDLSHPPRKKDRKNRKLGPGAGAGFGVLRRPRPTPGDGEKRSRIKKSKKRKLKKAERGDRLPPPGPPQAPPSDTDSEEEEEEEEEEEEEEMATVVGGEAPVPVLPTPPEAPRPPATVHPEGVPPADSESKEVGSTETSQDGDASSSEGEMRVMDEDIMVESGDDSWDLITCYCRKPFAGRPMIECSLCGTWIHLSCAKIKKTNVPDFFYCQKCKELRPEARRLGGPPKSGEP
Experimental: as §1

[7] = target: TP53-binding protein 1 (Homo sapiens, UniProt Q12888)
Sequence of TP53-binding protein 1 (Q12888 whole entry): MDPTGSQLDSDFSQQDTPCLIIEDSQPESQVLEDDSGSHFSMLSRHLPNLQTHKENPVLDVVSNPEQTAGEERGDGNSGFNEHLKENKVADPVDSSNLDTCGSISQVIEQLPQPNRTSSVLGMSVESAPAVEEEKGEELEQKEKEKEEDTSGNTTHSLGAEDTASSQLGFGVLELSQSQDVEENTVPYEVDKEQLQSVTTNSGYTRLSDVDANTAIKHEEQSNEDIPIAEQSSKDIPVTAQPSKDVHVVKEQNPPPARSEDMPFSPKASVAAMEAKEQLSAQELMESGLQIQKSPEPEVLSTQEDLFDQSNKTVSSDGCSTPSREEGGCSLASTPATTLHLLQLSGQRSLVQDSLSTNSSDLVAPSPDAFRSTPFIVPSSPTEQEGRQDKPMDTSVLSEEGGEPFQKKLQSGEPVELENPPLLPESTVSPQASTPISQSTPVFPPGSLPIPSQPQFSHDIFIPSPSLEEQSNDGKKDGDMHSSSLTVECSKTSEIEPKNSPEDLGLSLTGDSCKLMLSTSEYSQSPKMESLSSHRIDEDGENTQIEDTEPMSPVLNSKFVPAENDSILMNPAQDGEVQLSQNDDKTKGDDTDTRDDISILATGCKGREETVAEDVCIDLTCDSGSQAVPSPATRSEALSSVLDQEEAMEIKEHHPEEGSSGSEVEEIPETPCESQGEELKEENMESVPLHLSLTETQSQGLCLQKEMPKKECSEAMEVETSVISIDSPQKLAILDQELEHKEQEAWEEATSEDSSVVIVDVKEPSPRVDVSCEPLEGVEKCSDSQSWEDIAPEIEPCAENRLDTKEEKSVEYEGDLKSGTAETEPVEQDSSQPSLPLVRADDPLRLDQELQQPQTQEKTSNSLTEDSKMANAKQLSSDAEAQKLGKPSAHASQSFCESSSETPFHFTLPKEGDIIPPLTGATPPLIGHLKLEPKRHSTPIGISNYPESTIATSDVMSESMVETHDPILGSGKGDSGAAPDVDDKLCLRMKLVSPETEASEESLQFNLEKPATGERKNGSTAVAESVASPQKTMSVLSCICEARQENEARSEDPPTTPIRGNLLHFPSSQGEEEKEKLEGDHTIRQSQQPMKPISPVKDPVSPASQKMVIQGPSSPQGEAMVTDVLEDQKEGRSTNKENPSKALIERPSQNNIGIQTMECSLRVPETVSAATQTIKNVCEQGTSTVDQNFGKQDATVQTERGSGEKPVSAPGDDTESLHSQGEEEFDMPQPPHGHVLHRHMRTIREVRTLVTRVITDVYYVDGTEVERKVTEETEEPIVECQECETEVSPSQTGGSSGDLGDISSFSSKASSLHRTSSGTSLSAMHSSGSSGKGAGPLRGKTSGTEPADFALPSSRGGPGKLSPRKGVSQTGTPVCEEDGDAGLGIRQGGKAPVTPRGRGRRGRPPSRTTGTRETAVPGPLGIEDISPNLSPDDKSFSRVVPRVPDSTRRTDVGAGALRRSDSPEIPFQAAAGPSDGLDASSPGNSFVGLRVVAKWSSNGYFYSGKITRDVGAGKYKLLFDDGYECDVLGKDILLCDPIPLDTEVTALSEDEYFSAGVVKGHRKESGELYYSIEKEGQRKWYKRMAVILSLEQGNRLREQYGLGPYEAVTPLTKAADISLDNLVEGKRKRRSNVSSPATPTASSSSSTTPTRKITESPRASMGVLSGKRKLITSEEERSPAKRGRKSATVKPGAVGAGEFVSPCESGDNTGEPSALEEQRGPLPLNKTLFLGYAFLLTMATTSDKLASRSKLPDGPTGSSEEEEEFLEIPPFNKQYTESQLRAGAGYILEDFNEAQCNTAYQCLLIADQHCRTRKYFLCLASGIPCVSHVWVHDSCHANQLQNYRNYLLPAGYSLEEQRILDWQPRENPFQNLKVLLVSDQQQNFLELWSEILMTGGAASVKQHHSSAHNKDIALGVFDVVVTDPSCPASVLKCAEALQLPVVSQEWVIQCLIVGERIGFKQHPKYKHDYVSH
Experimental: as §1

Measured: IC50

CC(C)(C)NCCCNC(=O)c1ccccc1Br [2-Bromo-N-(3-(tert-butylamino)propyl)benzamide (16)]
> 100 µM: [1] | [2] | [3] | [4] | [5] | [6] | [7]

CC(C)(C)NCCCCNC(=O)c1cccc(Br)c1 [3-Bromo-N-(4-(tert-butylamino)butyl)benzamide (11)]
> 100 µM: [1] | [2] | [3] | [4] | [5] | [6] | [7]

CC(C)(C)NCCCCCNC(=O)c1cccc(Br)c1 [3-Bromo-N-(5-(tert-butylamino)pentyl)benzamide (12)]
> 100 µM: [1] | [2] | [3] | [4] | [5] | [6] | [7]

CC(C)(C)NCCCNC(=O)c1ccc(Br)cc1 [4-Bromo-N-(3-(tert-butylamino)propyl)benzamide (15)]
> 100 µM: [1] | [2] | [3] | [4] | [5] | [6] | [7]

CC(C)(C)NCCCNC(=O)c1cc(Br)ccn1 [4-Bromo-N-(3-(tert-butylamino)propyl)picolinamide (24)]
> 100 µM: [1] | [2] | [3] | [4] | [5] | [6] | [7]

CC(C)(C)N1CCN(C(=O)c2cccc(Br)c2)CC1 [(3-Bromophenyl)(4-(tert-butyl)piperazin-1-yl)methanone (10)]
> 100 µM: [1] | [2] | [3] | [4] | [5] | [6] | [7]

CC(C)(C)NCCCNC(=O)c1cc(C(F)(F)F)ccn1 [N-(3-(Tert-butylamino)propyl)-4-(trifluoromethyl)picolinamide (25)]
> 100 µM: [1] | [2] | [3] | [4] | [5] | [6] | [7]
